Entries after “also recorded” stand apart in the source; their conditions may differ.
Assays:
CC-HS treated iRPE cells = assay: RNAseq of iRPE co-treated with CC-HS and drugs; assay type: cell-based, human; conditions: listed as L, 745,870
Source text: The key hallmark of AMD cellular phenotypes seen in cadaver eyes and observed in the in vitro model are the sub-RPE lipid and protein rich deposits, increased expression of drusen markers, and the loss of epithelial phenotype and RPE functionality. […] Similar results were obtained by RNAseq of iRPE treated with just CC-HS plus the vehicle or co-treated with CC-HS and the two drugs. Both drugs were able to suppress (4-10 fold) the expression of dedifferentiation markers in CC-HS treated iRPE cells (FIG. 13H).

rat RPE = assay: Rat model of RPE dedifferentiation (micropulse laser lesion, sub-retinal injection); assay type: in vivo
Procedure: To test the in vivo activity of these drugs, a rat model of RPE dedifferentiation was developed. A 0.5 mm area of rat RPE was damaged using a micropulse laser. RPE cells in the lasered area are ablated causing the cells surrounding the laser lesion to undergo dedifferentiation due to the loss of cell-cell contacts. […] Effects of drugs on rat RPE dedifferentiation was tested by injecting either of the two drugs in the sub-retinal space of the rat eye at the time of laser injury.

iRPE cells [1] = assay: Proteotoxic high throughput screen (LOPAC) and follow up screen: survival of A23187 treated iRPE; assay type: cell-based, human; conditions: for cytoprotective activity in follow up screen: seven-point dose curve, A23187 2.5, 5, 10 μM, two iRPE samples
Procedure: 10 μM concentration of A23187 was selected for the drug screening, because it provided a bigger margin for cell death rescue. […] Drug treatment along with the stressor, 10 μM A23187 were added on to iRPE cells matured in 384-well plates and cell death was scored 48 hours later by ATP release using the CellTitrGlo assay.
To distinguish false positives from the real signal, a follow up screen on all of the 45 drugs using iRPE derived from two different iPSC lines was performed. The follow up screen was performed at three different A23187 concentrations (2.5, 5, 10 μM) and with seven different concentrations of drugs ranging from 10 nM-1 mM (FIG. 13D-F). […] Overall, the HTS screen provided two drugs for testing in the in vitro AMD model.

iRPE cells [2] = assay: Nile red staining of lipid deposits in CC-HS treated iRPE; assay type: cell-based, human; conditions: co-treatment with CC-HS, vs CC-HS and vehicle
ATG5 = ATG5 immunostaining in CC-HS treated iRPE; assay type: cell-based, human; conditions: co-treatment with CC-HS
iRPE monolayer = assay: Transepithelial resistance (TER) of CC-HS treated iRPE monolayer; assay type: cell-based, human; conditions: co-treatment with CC-HS
Source text: To further dissect the role of C5aR1 and C3aR1 signaling in inducing AMD cellular phenotypes in iRPE cells, a depleted sera and receptor blocker strategy was employed.

iRPE cells [3] = assay: Phagocytosis of photoreceptor outer segments by CC-HS treated iRPE; assay type: cell-based, human; conditions: co-treatment with CC-HS
Source text: Lastly, it was checked if the drugs rescued mature RPE phenotype and RPE functionality. TER of samples co-treated with drugs and CC-HS was 2-3× higher (p<10^−15) as compared to samples treated with vehicle+CC-HS was similar to TER values of CI-HS treated cells (FIG. 7G). Similarly, the addition of both drugs partially rescued (up to 2×; p<10^−15) the ability of the RPE cells to phagocytose photoreceptor outer segments, as compared to cells treated with CC-HS and the vehicle (FIG. 7H). […] The in vitro and in vivo data provides sufficient evidence to support the potential use of these drugs to delay AMD disease initiation and slow its progression.

iRPE cells [4] = assay: Cell area and hexagonality of CC-HS treated iRPE; assay type: cell-based, human; conditions: co-treatment with CC-HS
FIBULIN 3 = FIBULIN 3 expression in CC-HS treated iRPE; assay type: cell-based, human; conditions: co-treatment with CC-HS, vs CC-HS and vehicle
L-ORD patient RPE = assay: Apical beta-hydroxybutyrate (B-hB) secretion by RPE; assay type: cell-based, human
Procedure: The inventors have hypothesized that increasing fatty acid oxidation and ketone body formation (B-hB) may lead to decreased lipid accumulation in the sub retinal space.
(§1) Metformin treatment consisted of 3 mM metformin added to the apical and basal media for 1½- 2 weeks.

iPSC-RPE [5] = assay: VEGF secretion ELISA under hypoxic conditions; assay type: cell-based, human; conditions: for VEGF secretion, apical (Ap) / VEGF secretion, basal (Ba): hypoxic conditions (6h)
Procedure: Hypoxic stress (3% 02, 6h) was employed to determine how this perturbation regulates VEGF secretion in L-ORD patient iPSC-RPE.

iPSC-RPE [6] = assay: APOE deposition in POS-fed iPSC-RPE (integrated density); assay type: cell-based, human; conditions: for integrated density of APOE signal, apical / integrated density of APOE signal, basal: 7-days POS feeding
Procedure: (§2) Patient iPSC-RPE were treated daily beginning with the first day of POS feeding with 3 mM metformin (Fan et al., 2015; Kim et al., 2011).
White arrow indicates basal increase in APOE deposits reminiscent of APOE-rich drusen deposits in AMD (Johnson et al., 2011). […] Image J was used to draw a rectangular region of interest around the apical and basal APOE-positive staining to quantify the localized mean integrated intensity and the data is summarized in FIG. 18d.

iPSC-RPE [7] = assay: VEGF secretion ELISA under normoxia; assay type: cell-based, human; conditions: L-ORD patients, metformin 3 mM for 1½ to 2 weeks
Source text: Polarized secretion of cytokines by the RPE is a hallmark of their mature and differentiated state. Under conditions that promote epithelial to mesenchymal transition (EMT), RPE lose their morphology and their secretion becomes mispolarized. Dedifferentiation of the RPE is a frequently proposed mechanism in retinal degenerations such as AMD. Typically VEGF is primarily secreted basally by the RPE. In L-ORD patients, the polarity of VEGF secretion is lost as assessed by ELISA.

[8] = Mass-spectrometry analysis of metformin in eyes and plasma of treated animals; assay type: in vivo, mouse; conditions: oral dosing, data not shown
Stargardt iRPE = assay: Ceramide levels in POS fed Stargardt iRPE; assay type: cell-based, human
AMPK = assay: Phospho-AMPK ELISA in iPSC-RPE of L-ORD patients and unaffected siblings; assay type: cell-based, human; conditions: L-ORD patient iPSC-RPE, 3 mM metformin, 1½-2 weeks
Procedure: Thus, in FIG. 16b iPSC-RPE were incubated with recombinant CTRP5 globular form (0.2 μg/mL gCTRP5) for 30 min in the presence (+) and absence (−) of serum to evaluate its role in AMPK signaling.
To better elucidate the ADIPOR1-CTRP5 (receptor-ligand) interaction, […] a ligand dose response curve was performed (in serum free media) by exogenously adding increasing concentrations of recombinant full length CTRP5 (FIG. 16c).
AMPK is a sensitive indicator of the cell energy status and is canonically activated by the levels of AMP or ATP (Hardie and Lin, 2017). Therefore, the AMPK activity (in serum free media) of sibling and patient iPSC-RPE under conditions (increased AMP:ATP ratio) known to stimulate AMPK phosphorylation was characterized (FIG. 16d). iPSC-RPE were incubated in serum deprived media for 5 hours (Park et al., 2009) followed by 30 mins exposure to AICAR (an AMP analogue) or BAM15 (a mitochondrial uncoupler to reduce ATP production).
as §1

patients with AMD = assay: Retrospective cohort study of AMD patients concurrently using metformin; assay type: in vivo, human; conditions: patients ages 50-59, with metformin (n=16); 56 without (n=157)
Procedure: To determine whether there is clinical evidence that metformin could be beneficial in the treatment of AMD, a retrospective cohort study of patients presenting to Kaiser Permanante Medical with AMD was performed to test whether concurrent use of metformin by individuals affected diagnosis.
To determine whether there is clinical evidence that metformin could be beneficial in the treatment of AMD a retrospective cohort study was performed of patients presenting to Kaiser Permanante Medical with AMD to test whether concurrent use of metformin by individuals affected diagnosis.

Abca4−/− mice = assay: Abca4−/− mouse model, oral metformin, RPE/choroid flat-mount bodipy lipid stain
AMPK signaling pathway = assay: Gene expression of AMPK signaling pathway in L-ORD patient RPE; assay type: cell-based, human; conditions: metformin 3 mM for 1½ to 2 weeks
Procedure: Treatment with metformin (3 mM) for 1½ to 2 weeks results in further decrease in some genes but an upregulation in others. […] In the RPE, the PEDF-R plays an important role in fatty acid metabolism.

iPSC-RPE [9] = assay: Cell area of POS-fed iPSC-RPE (ZO-1 staining, REShAPE); assay type: cell-based, human
Source text: Accumulating evidence implicates disrupted lipid metabolism as a common pathogenic mechanism in a host of diseases including AMD (Ban et al., 2018; Xu et al., 2018). These metabolic defects are linked to long term health of RPE cells. To determine the consequence of PEDF-R deficiency in RPE cells, L-ORD iPSC-RPE and unaffected siblings were subjected to 7-day photoreceptor outersegment (POS) feeding to exacerbate the high fat-induced epithelial impairment. Concomitantly, it was investigated whether the lipid-lowering effects of metformin, an anti-diabetic drug (Schneider et al., 1990), could reverse RPE dedifferentiation and loss of polarity. Cell size, a key morphological indicator of RPE polarity, was evaluated by staining for ZO-1 (green) to identify cell borders (FIG. 18a) and employing automated image analysis algorithms in REShAPE (a cloud-computing based cell morphometry analyzer) to perform morphometric analysis of RPE cells.
as §2

L-ORD patient iPSC-RPE = assay: Expression of EMT-related genes in POS-fed L-ORD patient iPSC-RPE; assay type: cell-based, human
Source text: POS feeding for 7-days also altered the expression profiles of 85 EMT-related genes in L-ORD patient iPSC-RPE (FIG. 18g).

[10] = L-ORD patient RPE, prior metformin 2 weeks
[11] = untreated or metformin treated unaffected siblings
[12] = metformin treated L-ORD patients
[13] = metformin treated unaffected siblings

Clc1ccc(N2CCN(Cc3c[nH]c4ncccc34)CC2)cc1 [L-745,870]
gene expression changes induced by CC-HS treatment (CC-HS treated iRPE cells): reversed gene expression changes induced by CC-HS treatment; also recorded: reversal of the upregulation of NF-KB pathway genes
area of RPE cells at the borders of laser lesion in rat eyes (rat RPE): reduced area
hexagonality of RPE cells at the borders of laser lesion in rat eyes (rat RPE): improved hexagonality
area of RPE cells around the laser lesion (rat RPE; sub-retinal injection at the time of laser injury): 439.55 um2
IC50 (iRPE cells [1]; cell survival of A23187 treated iRPE, read-out: IC50 dose from seven-point dose response curve): 6 µM
cytoprotective activity in follow up screen (iRPE cells [1]): reproducible cell survival; also recorded: linear response the seven-point dose curve and reproducibility between two different iRPE samples
cytoprotective activity in follow up screen (iRPE cells [1]; listed as L, 745,870): reproducible cytoprotective activity
amount of Nile red positive lipid droplets (iRPE cells [2]): reduced
reduced expression of autophagy protein, ATG5 (ATG5): does not lead to
monolayer TER (iRPE monolayer): increased monolayer TER
phagocytic ability (iRPE cells [3]): increased
average cell area (iRPE cells [4]): 162.24 um2
cell area of CC-HS treated iRPE cells (iRPE cells [4]): reduced area
hexagonality of CC-HS treated iRPE cells (iRPE cells [4]): improved hexagonality
hexagonality score (iRPE cells [4]; 10 represents a perfect hexagon): 8.25
expression of FIBULIN 3 (FIBULIN 3): reduced
expression of FIBULIN 3 (FIBULIN 3; listed as L745,870): four-fold lower

CN(C)C(=N)N=C(N)N [metformin]
increase in apical B-hB secretion (L-ORD patient RPE; L-ORD patient RPE, 3 mM metformin 1½-2 weeks): 25%
beta-hydroxybutyrate apical secretion (L-ORD patient RPE; metformin treatment): increased beta-hydroxybutyrate apical secretion
hypoxia-induced apical VEGF secretion (iPSC-RPE [5]; 1½ week pretreatment with metformin): alleviated the hypoxia-induced apical VEGF secretion
VEGF secretion, apical (Ap) (iPSC-RPE [5]; [10]): 0.59±0.09
VEGF secretion, basal (Ba) (iPSC-RPE [5]; [10]): 1.8±0.24
VEGF secretion, apical (Ap) (iPSC-RPE [5]; [11]): 0.98±0.16
VEGF secretion, basal (Ba) (iPSC-RPE [5]; [11]): 1.64±0.33
rescue of mispolarized VEGF secretion (iPSC-RPE [5]; hypoxic stress (3% O2, 6h), metformin for 24h, data not shown): insufficient to rescue this phenotype
apical and basal APOE deposition (iPSC-RPE [6]; L-ORD patient RPE treated with metformin during POS feeding): ameliorate the accumulation of APOE-containing basal deposits; also recorded: redistribution of the relative proportions of apical and basal APOE deposition
integrated density of APOE signal, apical (iPSC-RPE [6]; [12]): 79.30±37.51
integrated density of APOE signal, basal (iPSC-RPE [6]; [12]): 13.58±4.58
integrated density of APOE signal, apical (iPSC-RPE [6]; [13]): 119.98±20.36
integrated density of APOE signal, basal (iPSC-RPE [6]; [13]): 23.55±6.17
polarized VEGF secretion (iPSC-RPE [7]): rescue of polarized VEGF secretion
polarized VEGF secretion (iPSC-RPE [7]; listed as Metformin): rescues mispolarized secretion of VEGF
amount of metformin in RPE/choroid, retina, and plasma [8]: comparable amount
reduction of ceramide levels vs vehicle (Stargardt iRPE; 3 mM metformin, wild type POS for 6 consecutive days): 3-4 fold
ceramide accumulation (Stargardt iRPE; POS-Fed Stargardt iRPE treated with metformin): dramatic reduction
sensitivity of p-AMPK to changes in the AMP:ATP ratio / AICAR (AMPK): restored sensitivity to AICAR; also recorded: regained sensitivity to AICAR; also recorded: restores the sensitivity
age of onset of nonexudative age-related macular degeneration (patients with AMD): 58.5 years of age
hypoglycemia in treated mice (Abca4−/− mice; oral metformin 400 or 800 mg/day): do not lead to hypoglycemia
lipid levels / deposits in RPE/choroid flat-mount (Abca4−/− mice; oral metformin 400 or 800 mg/day for three months): drastically reduced lipid levels; also recorded: reduced deposits
PNPLA2 (PEDF-R) expression (AMPK signaling pathway): significant increase
POS stress-induced enlargement of patient iPSC-RPE (iPSC-RPE [9]; 3 mM metformin daily from first day of POS feeding): largely prevented the POS stress-induced enlargement
cell area (iPSC-RPE [9]; L-ORD patient iPSC-RPE, 3 mM metformin during 7 days POS feeding): 117.92±0.96 um
cell area (iPSC-RPE [9]; unaffected siblings, metformin during 7 days POS feeding): 93.14±1.56 um
number of EMT genes downregulated (L-ORD patient iPSC-RPE; L-ORD patient iPSC-RPE treated with metformin, <4-fold as printed): 42 genes
expression of EMT related genes (L-ORD patient iPSC-RPE; metformin during 7-days POS feeding): suppresses the expression of EMT related genes

From US20220339127A1, “DRUGGABLE TARGET TO TREAT RETINAL DEGENERATION” (The United States of America,as represented by the …, priority 2019, published 2022)
